Values joined by “and” are separate entries in the source; they are usually repeats but may differ in a detail not shown here. Identical values can stand only once.
Columns and labels:
Assay in all cases: Quantitative chemical proteomic profiling of ABP 2 in HEK293 cells: other DUBs and proteins across the proteome
[1] = biological target: T1, DUBs and other proteins in HEK293 cells (Homo sapiens, UniProt Q53GS9); conditions: USP39
T1 sequence (Q53GS9 1-565): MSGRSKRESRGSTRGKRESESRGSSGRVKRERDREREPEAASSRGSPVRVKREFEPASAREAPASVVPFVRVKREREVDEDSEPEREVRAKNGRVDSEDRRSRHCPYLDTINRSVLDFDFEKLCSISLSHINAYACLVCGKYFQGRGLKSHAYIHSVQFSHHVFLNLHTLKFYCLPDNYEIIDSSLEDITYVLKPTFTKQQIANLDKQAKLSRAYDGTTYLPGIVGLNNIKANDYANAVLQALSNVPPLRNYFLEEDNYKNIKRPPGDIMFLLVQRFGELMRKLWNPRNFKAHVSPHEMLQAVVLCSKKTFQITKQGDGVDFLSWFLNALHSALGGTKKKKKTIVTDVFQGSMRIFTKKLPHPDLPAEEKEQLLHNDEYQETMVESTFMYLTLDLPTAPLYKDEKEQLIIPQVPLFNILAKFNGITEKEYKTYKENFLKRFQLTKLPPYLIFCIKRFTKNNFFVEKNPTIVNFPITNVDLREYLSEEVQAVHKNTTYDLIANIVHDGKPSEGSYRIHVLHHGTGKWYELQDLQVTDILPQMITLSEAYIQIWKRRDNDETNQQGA

[2] = biological target: T2, DUBs and other proteins in HEK293 cells (Homo sapiens, UniProt P45974); conditions: USP5, listed as ABP 2
T2 sequence (P45974 1-858): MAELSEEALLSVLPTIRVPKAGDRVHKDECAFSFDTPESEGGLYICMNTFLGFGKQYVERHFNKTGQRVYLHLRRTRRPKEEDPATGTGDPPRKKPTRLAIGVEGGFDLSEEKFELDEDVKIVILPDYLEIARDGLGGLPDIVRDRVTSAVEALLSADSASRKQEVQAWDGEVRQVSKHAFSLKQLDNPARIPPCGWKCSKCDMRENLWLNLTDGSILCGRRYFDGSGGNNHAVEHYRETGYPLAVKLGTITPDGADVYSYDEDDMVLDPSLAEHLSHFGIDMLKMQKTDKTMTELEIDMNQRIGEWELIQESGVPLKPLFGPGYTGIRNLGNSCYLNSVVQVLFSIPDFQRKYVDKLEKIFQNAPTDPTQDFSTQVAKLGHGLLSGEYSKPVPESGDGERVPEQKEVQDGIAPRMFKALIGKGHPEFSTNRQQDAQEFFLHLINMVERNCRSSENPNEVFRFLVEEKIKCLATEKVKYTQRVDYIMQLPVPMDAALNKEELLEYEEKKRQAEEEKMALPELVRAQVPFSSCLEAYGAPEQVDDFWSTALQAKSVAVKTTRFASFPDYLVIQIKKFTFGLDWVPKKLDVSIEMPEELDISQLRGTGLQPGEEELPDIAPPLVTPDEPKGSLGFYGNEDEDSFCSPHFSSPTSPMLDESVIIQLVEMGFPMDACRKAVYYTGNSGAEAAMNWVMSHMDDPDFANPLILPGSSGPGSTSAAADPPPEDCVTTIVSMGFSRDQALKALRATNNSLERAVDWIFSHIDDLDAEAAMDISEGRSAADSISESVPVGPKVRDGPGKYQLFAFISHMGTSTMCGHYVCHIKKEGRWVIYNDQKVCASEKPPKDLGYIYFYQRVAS

[3] = biological target: DUBs and other proteins in HEK293 cells (Homo sapiens, UniProt Q7L5N1); conditions: COPS6, listed as ABP 2
[4] = biological target: T3, DUBs and other proteins in HEK293 cells (Homo sapiens, UniProt P51665); conditions: PSMD7, listed as ABP 2
T3 sequence (P51665 1-324): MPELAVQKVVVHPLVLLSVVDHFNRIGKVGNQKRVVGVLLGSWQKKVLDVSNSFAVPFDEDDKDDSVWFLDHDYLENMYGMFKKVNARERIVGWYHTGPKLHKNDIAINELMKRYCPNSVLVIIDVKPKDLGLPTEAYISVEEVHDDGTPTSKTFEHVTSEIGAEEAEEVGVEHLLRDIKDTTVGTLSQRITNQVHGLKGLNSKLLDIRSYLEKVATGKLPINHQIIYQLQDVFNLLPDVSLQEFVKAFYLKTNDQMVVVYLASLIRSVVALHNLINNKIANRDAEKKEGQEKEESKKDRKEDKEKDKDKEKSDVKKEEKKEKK

[5] = biological target: DUBs and other proteins in HEK293 cells (Homo sapiens, UniProt Q92905); conditions: COPS5, listed as ABP 2
[6] = 200 nM, 180 min, replicates A,C

Chain of DUBs and other proteins in HEK293 cells (Homo sapiens, UniProt Q92905) (Q92905 whole entry): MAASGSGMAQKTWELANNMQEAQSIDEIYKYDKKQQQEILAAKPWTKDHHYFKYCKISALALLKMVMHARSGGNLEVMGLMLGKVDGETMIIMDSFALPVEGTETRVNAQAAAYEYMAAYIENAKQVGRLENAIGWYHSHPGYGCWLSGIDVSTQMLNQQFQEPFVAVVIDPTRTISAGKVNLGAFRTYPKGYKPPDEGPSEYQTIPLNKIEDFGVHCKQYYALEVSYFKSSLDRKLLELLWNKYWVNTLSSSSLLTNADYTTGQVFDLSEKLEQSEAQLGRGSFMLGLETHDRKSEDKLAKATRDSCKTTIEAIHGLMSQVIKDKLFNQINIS
Chain of DUBs and other proteins in HEK293 cells (Homo sapiens, UniProt Q7L5N1) (Q7L5N1 whole entry): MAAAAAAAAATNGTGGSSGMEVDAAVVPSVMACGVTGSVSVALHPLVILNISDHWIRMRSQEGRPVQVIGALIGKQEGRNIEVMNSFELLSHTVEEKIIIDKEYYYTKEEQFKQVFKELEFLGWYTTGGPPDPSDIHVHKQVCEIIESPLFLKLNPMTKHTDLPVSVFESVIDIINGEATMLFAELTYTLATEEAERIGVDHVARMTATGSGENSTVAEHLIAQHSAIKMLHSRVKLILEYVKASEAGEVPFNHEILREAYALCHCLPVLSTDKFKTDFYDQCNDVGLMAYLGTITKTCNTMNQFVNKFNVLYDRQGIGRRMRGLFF

Log2 reporter intensity values (Log2FC, DMSO substract) ([1]; 2 nM, 60 min, replicates A-C, listed as ABP 2): 0.1489 and -0.6669 | Log2 reporter intensity values (Log2FC, DMSO substract) ([1]; 20 nM, 10 min, replicates B,C): 0.2437 | Log2 reporter intensity values (Log2FC, DMSO substract) ([1]; 20 nM, 60 min, replicates A-C, listed as ABP 2): 0.1765 and 0.5295 | Log2 reporter intensity values (Log2FC, DMSO substract) ([1]; 20 nM, 180 min, replicates A-C, listed as ABP 2): 0.1037 and 0.2866 | Log2 reporter intensity values (Log2FC, DMSO substract) ([1]; 200 nM, 10 min, replicates B,C): 0.594 | Log2 reporter intensity values (Log2FC, DMSO substract) ([1]; 200 nM, 60 min, replicates A-C, listed as ABP 2): 0.3986 and 0.5245 | Log2 reporter intensity values (Log2FC, DMSO substract) [1, 6]: 0.3314 | Log2 reporter intensity values (Log2FC, DMSO substract) ([2]; 2 nM, 60 min, replicates A-C): -0.1407 and 0.0289 and 0.1099 | Log2 reporter intensity values (Log2FC, DMSO substract) ([2]; 20 nM, 10 min, replicates B,C): 0.1281 | Log2 reporter intensity values (Log2FC, DMSO substract) ([2]; 20 nM, 60 min, replicates A-C): 0.06053 and 0.195 and 0.2148 | Log2 reporter intensity values (Log2FC, DMSO substract) ([2]; 20 nM, 180 min, replicates A-C): 0.2725 and 0.06742 and 0.2092 | Log2 reporter intensity values (Log2FC, DMSO substract) ([2]; 200 nM, 10 min, replicates B,C): 0.2092 and 0.2483 | Log2 reporter intensity values (Log2FC, DMSO substract) ([2]; 200 nM, 60 min, replicates A-C): 0.08791 and 0.2394 | Log2 reporter intensity values (Log2FC, DMSO substract) [2, 6]: 0.2625 and 0.2347 | Log2 reporter intensity values (Log2FC, DMSO substract) ([3]; 2 nM, 60 min, replicates A-C): -0.04023 and 0.308 | Log2 reporter intensity values (Log2FC, DMSO substract) ([3]; 20 nM, 10 min, replicates B,C): -0.278 and 0.05496 | Log2 reporter intensity values (Log2FC, DMSO substract) ([3]; 20 nM, 60 min, replicates A-C): -0.132 and -0.1593 and 0.09464 | Log2 reporter intensity values (Log2FC, DMSO substract) ([3]; 20 nM, 180 min, replicates A-C): -0.02381 and 0.4095 and -0.1139 | Log2 reporter intensity values (Log2FC, DMSO substract) ([3]; 200 nM, 10 min, replicates B,C): 0.1379 and -0.08033 | Log2 reporter intensity values (Log2FC, DMSO substract) ([3]; 200 nM, 60 min, replicates A-C): 0.1575 and 0.03437 and 0.12 | Log2 reporter intensity values (Log2FC, DMSO substract) [3, 6]: 0.2559 and 0.1548 | Log2 reporter intensity values (Log2FC, DMSO substract) ([4]; 2 nM, 60 min, replicates A-C): -0.04989 and -0.02897 and -0.2015 | Log2 reporter intensity values (Log2FC, DMSO substract) ([4]; 20 nM, 10 min, replicates B,C): -0.09409 and -0.09867 | Log2 reporter intensity values (Log2FC, DMSO substract) ([4]; 20 nM, 60 min, replicates A-C): 0.07866 and 0.1721 and 0.02873 | Log2 reporter intensity values (Log2FC, DMSO substract) ([4]; 20 nM, 180 min, replicates A-C): 0.04655 and 0.01609 and -0.03959 | Log2 reporter intensity values (Log2FC, DMSO substract) ([4]; 200 nM, 10 min, replicates B,C): 0.1092 and 0.06216 | Log2 reporter intensity values (Log2FC, DMSO substract) ([4]; 200 nM, 60 min, replicates A-C): -0.1489 and -0.1748 | Log2 reporter intensity values (Log2FC, DMSO substract) [4, 6]: -0.06266 and -0.01801 | Log2 reporter intensity values (Log2FC, DMSO substract) ([5]; 2 nM, 60 min, replicates A-C): -0.07206 and -0.06602 and 0.07642 | Log2 reporter intensity values (Log2FC, DMSO substract) ([5]; 20 nM, 10 min, replicates B,C): -0.04991 and -0.07182 | Log2 reporter intensity values (Log2FC, DMSO substract) ([5]; 20 nM, 60 min, replicates A-C): -0.1096 and -0.2324 and -0.02748 | Log2 reporter intensity values (Log2FC, DMSO substract) ([5]; 20 nM, 180 min, replicates A-C): -0.1203 and -0.07618 and -0.1432 | Log2 reporter intensity values (Log2FC, DMSO substract) ([5]; 200 nM, 10 min, replicates B,C): -0.09582 and 0.125 | Log2 reporter intensity values (Log2FC, DMSO substract) ([5]; 200 nM, 60 min, replicates A-C): 0.01523 and 0.2396 and 0.003556 | Log2 reporter intensity values (Log2FC, DMSO substract) [5, 6]: 0.05752 and -0.04833
Structure (SMILES): C#Cc1cnc2[nH]cc(-c3cccc4c3CCN4C(=O)[C@@H]3CCCN3C#N)c2c1 [Compound 2]
